Experimental data: ChEMBL document CHEMBL1255357, “Enrichment of fluoroquinolone-resistant Staphylococcus aureus: oscillating ciprofloxacin concentrations simulated at the upper and lower portions of the mutant selection window” (Antimicrob Agents Chemother, 2008)
The source made the active and inactive calls. The calls are words filed in the database; no cut-off is given here.

Key:
Staphylococcus aureus [1] = experiment: Antimicrobial activity against methicillin-resistant Staphylococcus aureus ATCC 6538 assessed as mutant prevention concentration after 48 hrs; type: functional, organism-based
Staphylococcus aureus [2] = experiment: Antimicrobial activity against methicillin-resistant Staphylococcus aureus ATCC 43300 assessed as mutant prevention concentration after 48 hrs; type: functional, organism-based

Question: With `O=C(O)c1cn(C2CC2)c2cc(N3CCNCC3)c(F)cc2c1=O` as the molecule, how does the Activity (Staphylococcus aureus [1]) read?
Answer: Active

Question: And the Activity (Staphylococcus aureus [2])?
Answer: Active
